In assay [1] the target is Cys242 in human PIK3CA (157-299) (Homo sapiens (Human), UniProt P42336). The assay can be described thus: Covalent modification assay using MALDI-TOF MS. It is filed as biochemical. The following applies: 4 h reaction time point. As for the experimental part:
Matrix-Assisted Laser Desorption Ionization-Time of Flight Mass Spectrometry (MALDI-TOF MS) analysis of covalent modification of Cys242 in human PIK3CA (157-299) was performed.
Reaction: 3.33 μM or 1 μM of PIK3CA (157-299) protein (produced in-house by Protein Expression Laboratory, FNLCR/Leidos Biomed) in 20 mM HEPES buffer containing 150 mM NaCl, 2 mM MgCl2, pH 7.3 was prepared freshly before assay. Twelve-μL aliquots of protein were dispensed onto low volume 384-well plate, then 470 nL DMSO and 30 nL of tested compounds from 10 mM DMSO stocks were added to appropriate wells using ECHO 555 acoustic liquid handler (Labcyte Inc.). For each reaction/assay, three blanks were prepared by mixing 12 μL of protein solution with 500 nL DMSO. The wells content was carefully mixed by aspiration, and then the plate was sealed by an adhesive cover, centrifuged at 931 g for 1 minute, and kept in the dark at room temperature until 15 min, 30 min, 2 h, or 4 h collections.
Targetpretreatment: Before each assay MALDI target (Bruker MPT 384 ground steel BC) was pre-treated by pipetting on each spot 0.75 μL of saturated sinapinic acid in acetonitrile (ACN).
Sample preparation: At collection time point, 2 μL of reaction mixtures were pipetted out into […] MALDI matrix solution (saturated solution of sinapinic acid in 1:1 ACN:water solution containing 0.15% trifluoroacetic acid (TFA)) deposited on 384 well polypropylene plate. The resulting solution was mixed by aspiration, centrifuged at 931 g for 1 minute, then 1.5 μL aliquots were dispensed on pre-treated MALDI target using Beckman Coulter Biomek FX^P 96/384-Span-8 Laboratory Automation Workstation. Finally, the MALDI target was dried under a mild vacuum to produce spots with a fine crystalline structure.
Measurements: MALDI-TOF measurements were performed on Bruker Daltonics rapifleX Tissuetyper TOF-TOF mass spectrometer using linear mode and mass ranging from 16.0 to 19.6 kDa. Detector gain was set to 0.64×(459 V), sample rate to 5 GS/s, real-time smoothing to medium (175 MHz), laser smart beam pattern was set to “Custom” single smartbeam beam scan with a scan range of 40 μm on both X and Y axis, and the laser frequency was 10000 Hz. Spectra were automatically collected using the custom AutoXecute method. Laser power was auto adjusted using fuzzy control. The peak selection range was set to be between 16.0 and 18.5 kDa. Peak evaluation uses a half-width parameter set to be smaller than 40 Da for processed spectrograms (centroid peak detection; smoothed by SavitzkyGolay algorithm using 7 m/z width and 2 cycles; baseline was subtracted using a median algorithm with flatness 1 and median level 0). Fuzzy control used Proteins/Oligonucleotides protocol with minimum half-width 1/10 times above threshold. Up to 40000 satisfactory shots were collected in 10000 short steps. Dynamic termination was implemented to finish data collection when the peak signal/noise ratio was reaching a value of 1000.
Spectra processing: Spectra were smoothed by SavitzkyGolay algorithm using 7 m/z width and three cycles. Centroid peak detection algorithm was used with signal to noise threshold set to 6, relative intensity threshold 3%, peak width 10 m/z, and median baseline subtraction using flatness of 1 and the median level of 0.1. Peak intensity and area under the peak were evaluated and recorded for all peaks between 16.0 and 19.5 kDa.
Calculation of percent modification: Percent modification was calculated as a ratio of peak height for protein modified by compound to the sum of the peak height of remaining protein plus peak height for protein modified by a compound. If multiple modifications were observed each was calculated as a ratio of peak height for given modification versus the sum of peak heights for all observed protein species.

Assay [2] concerns pAKT in BT474 cells. Description: Cell-based pAKT HTRF assay in BT474 cells. To be noted: BT474 cells, 4 hr incubation, read-out: pAKT inhibition IC50 in BT474 cells. As for the experimental part: On Day 1, cells were seeded into 96-well plates at 2.5×10^4 cells/well in complete growth media (DMEM, 10% FBS). On Day 2, cells were treated with compounds at 0.25% DMSO. The source plate was created with compounds diluted in media at 5-fold the final assay concentration. The compounds are run in a 9-point concentration curve starting at 3 μM, with a 3-fold dilution between concentrations. 20 μL was transferred onto the cell plates (final volume in wells was 100 μL). Plates were harvested after 4 hr incubation by aspirating media and adding kit-supplied 1× supplemented lysis buffer to all wells (75 μL per well). Plates were then placed on a plate shaker and incubated at 850 rpm for an additional 30 min. The antibody mixture solution was prepared by diluting aliquoted d2 and Eu Cryptate antibodies 1:20 in kit supplied detection buffer, then mixed the diluted antibodies solutions (1:1 v:v). 4 μL of this solution was then added to a 384-well detection plate (Perkin Elmer; 6008230). Samples were homogenized by pipetting up and down and then transferred (16 μL of cell lysates) from the 96-well cell culture plate to two wells of the HTRF 384-well detection plate containing the antibody solution. Plates were centrifuged (524 g for 1 min) and allowed to incubate between 4 and 24 h at room temperature. The maximum signal is reached after 4 h incubation time and remains stable over a period of 24 hours. Therefore, readings can be made between 4 and 24 h of incubation. Plates were centrifuged again (524 g for 1 m), and analyzed on the EnVision plate reader using the following settings: Excitation 320 nm, Bandwidth […]; Emission 615 nm, Bandwidth […], Gain 10000, Flashes 100, Lag 60 μs.

Setting [3] is: 3.33 μM protein target, 1:7.5 protein to compound ratio (compounds 1-852).

Where two headings read alike, the source gives them in different places. Bounds are passed on as bounds.

Sequence of Cys242 in human PIK3CA (157-299) (P42336 157-299): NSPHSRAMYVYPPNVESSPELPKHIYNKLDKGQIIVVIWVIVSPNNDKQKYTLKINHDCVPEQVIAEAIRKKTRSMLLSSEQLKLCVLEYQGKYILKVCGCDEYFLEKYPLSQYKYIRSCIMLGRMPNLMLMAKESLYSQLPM

What is called IC50 is the concentration that gives 50% inhibition. Take `C=CC(=O)N1Cc2cc(-c3nc(-c4cnc5oc(C)nc5c4)c4ccsc4c3-c3c(F)cc(F)cc3OCCOC)nn2C[C@H]1C` [Compound 825]: in assay [1] (setting [3]), the “% of modification” value is “A (percent of modification of PIK3CA protein ≥75%)”. Moreover, the IC50 in assay [2] (Compounds 10-999) is below 0.1 µM.

With `C=CC(=O)N1CCC(n2cc(-c3nc(-c4cn(C)cn4)c4ccsc4c3-c3ccc(F)cc3OCCOC)cn2)CC1` [Compound 73], the “% of modification” value in assay [1] (setting [3]) was “A (percent of modification of PIK3CA protein ≥75%)”. For the same compound, the IC50 in assay [2] (Compounds 10-999) lay within 0.1 to 1 µM.

As for `C=CC(=O)N1CCn2nc(-c3nc(-c4cc5c(cc4OC)C(=O)NC5)c4ccsc4c3-c3c(F)cc(F)cc3OCCO)cc2C1C` (stereo not drawn) [Compound 1072], in assay [1] (1 μM protein target, 1:5 protein to compound ratio (compounds 853-1279)), the “% of modification” value is “A (percent of modification of PIK3CA protein ≥75%)”. In addition, the IC50 in assay [2] (Compounds 1000-1279) was below 0.1 µM. As for `C=CC(=O)N1Cc2cc(-c3nc(-c4cnn(C)c4)c4ccsc4c3-c3c(F)cc(F)cc3OCCO)nn2CC1C` (stereo not drawn) [Compound 534], the “% of modification” value in assay [1] (setting [3]) is reported as “A (percent of modification of PIK3CA protein ≥75%)”. Further, the 50% inhibitory concentration (IC50) in assay [2] (Compounds 10-999) is below 0.1 µM. For `C=CC(=O)N1CC(n2cc(-c3nc(-c4ccc5c(c4)CCNC5)c4ccsc4c3-c3ccc(F)cc3OCCOC)ncc2=O)C1` [Compound 210] the same measures were “A (percent of modification of PIK3CA protein ≥75%)” and below 0.1 µM.

As to `C=CC(=O)N1CCc2ncc(-c3nc(-c4cnc5c(c4)CN(C)CC5)c4ccsc4c3-c3c(F)cc(F)cc3OCCOC)cc2C1` [Compound 378], the “% of modification” value in assay [1] (setting [3]) is given as “A (percent of modification of PIK3CA protein ≥75%)”. For the same compound, the IC50 in assay [2] (Compounds 10-999) is below 0.1 µM. On to `C=CC(=O)N1CCc2nc(-c3nc(-c4ccc5c(c4)CCNC5)c4c(F)csc4c3-c3c(F)cc(F)cc3OCCOC)sc2C1` [Compound 434, 1-[2-[7-[2,4-difluoro-6-(2-methoxyethoxy)phenyl]-3-fluoro-4-(1,2,3,4-tetrahydroisoquinolin-6-yl)thieno[3,2-c]pyridin-6-yl]-6,7-dihydro-4H-thiazolo[5,4-c]pyridin-5-yl]prop-2-en-1-one], for which, in assay [1] (setting [3]), the “% of modification” value is listed as “A (percent of modification of PIK3CA protein ≥75%)”. For the same compound, in assay [2] (Homo sapiens, BT-474, Compounds 10-999), the IC50 fell in the range of 0.1 to 1 µM. As for `C=CC(=O)N1CCn2nc(-c3nc(-c4ccc5cnncc5c4)c4ccsc4c3-c3c(F)cc(F)cc3OCCO)cc2C1C` (stereo not drawn) [Compound 660], the “% of modification” value in assay [1] (setting [3]) was “C (25%≤percent of modification <50%)”. Moreover, the IC50 in assay [2] (Compounds 10-999) was 0.1 to 1 µM. On the same counts, the results for `C=CC(=O)N1CCn2nc(-c3nc(-c4ccc5c(c4)ncn5C)c4ccsc4c3-c3c(F)cc(F)cc3OCCO)cc2[C@@H]1C` [Compound 664, 1-((S)-2-((S)-7-(2,4-difluoro-6-(2-hydroxyethoxy)phenyl)-4-(1-methyl-1H-benzo[d]imidazol-5-yl)thieno[3,2-c]pyridin-6-yl)-4-methyl-6,7-dihydropyrazolo[1,5-a]pyrazin-5(4H)-yl)prop-2-en-1-one] are “A (percent of modification of PIK3CA protein ≥75%)” and below 0.1 µM.

Turning to `C=CC(=O)N1Cc2cc(-c3nc(-c4cnn(CC(C)(C)O)c4)c4ccsc4c3-c3c(F)cc(F)cc3OC(C)C)nn2CC1C` (stereo not drawn) [Compound 490], the “% of modification” value in assay [1] (setting [3]) is given as “A (percent of modification of PIK3CA protein ≥75%)”. Besides, in assay [2] (Compounds 10-999), the IC50 is below 0.1 µM. In the case of `CC1c2cc(-c3nc(-c4ccc5c(cnn5C)c4)c4ccsc4c3-c3c(F)cc(F)cc3OCCO)nn2CCN1C(=O)C(O)CO` (stereo not drawn) [Compound 1236], in assay [2] (Compounds 1000-1279), the IC50 was above 1 µM. As for `CCC(=O)N1CCn2nc(-c3nc(-c4ccc5c(c4)CCNC5=O)c4ccsc4c3-c3ccc(F)cc3OC(C)C)nc2C1` [Compound 260], in assay [2] (Compounds 10-999), the IC50 was above 3 µM.

In the case of `C=CC(=O)N1CCCc2ccc(-c3nc(-c4ccc5c(c4)CCNC5)c4ccsc4c3-c3ccc(F)cc3OCCOC)cc21` [Compound 66], the “% of modification” value in assay [1] (setting [3]) was “D (percent of modification <25%)”. Regarding `COCCOc1cc(F)ccc1-c1c(-c2ccc(OC(C)C)cc2F)nc(-c2ccc3c(c2)CCNC3)c2ccsc12` [Compound 231], the half-maximal inhibitory concentration (IC50) in assay [2] (Compounds 10-999) is above 3 µM.

Consider `CCC(=O)N1CC(n2cc(-c3nc(-c4ccc5c(c4)CCNC5)c4ccsc4c3-c3ccc(F)cc3OC)cn2)C1` [Compound 124], for which, in assay [2] (Compounds 10-999), the IC50 is above 3 µM. With `C=CC(=O)N1CCn2nc(-c3nc(-c4ccc5c(c4)CCN(C)C5)c4ccsc4c3-c3c(F)cc(F)cc3OC(C)C)cc2[C@@H]1C` [Compound 540], in assay [2] (Compounds 10-999), the IC50 was 1 to 3 µM. On to `C=CC(=O)N1CCc2ccc(-c3nc(-c4ccc5c(c4)CCNC5)c4ccsc4c3-c3ccc(F)cc3OCCOC)cc21` [Compound 65], for which the “% of modification” value in assay [1] (setting [3]) was “D (percent of modification <25%)”.

As for `C=CC(=O)N1CCn2nc(-c3nc(-c4ccc5c(c4)CCN(C)C5)c4ccsc4c3-c3c(F)cc(F)cc3OC(C)C)cc2[C@@H]1C` [Compound 541], the IC50 in assay [2] (Compounds 10-999) was below 0.1 µM. In the case of `C=CC(=O)N1CCn2nc(-c3nc(-c4ccc5c(c4)CCN(C)C5)c4ccsc4c3-c3c(F)cc(F)cc3OC(C)C)cc2[C@H]1C` [Compound 543], in assay [2] (Compounds 10-999), the IC50 was below 0.1 µM. Still for that read-out and setting: under `C=CC(=O)N1CCn2nc(-c3nc(-c4ccc5c(c4)CCN(C)C5)c4ccsc4c3-c3c(F)cc(F)cc3OC(C)C)cc2[C@H]1C` [Compound 542] stands 0.1 to 1 µM. As to `CCC(=O)N1CCn2nc(-c3nc(-c4ccc5c(cnn5C)c4)c4ccsc4c3-c3c(F)cc(F)cc3OCCOC)cc2C1C` (stereo not drawn) [Compound 1204], the half-inhibitory concentration (IC50) in assay [2] (Compounds 1000-1279) is above 1 µM. `CCC(=O)N1CCn2nc(-c3nc(-c4ccc5c(c4)CCNC5=O)c4ccsc4c3-c3ccc(F)cc3OC(C)C)cc2C1` [Compound 269]: the IC50 in assay [2] (Compounds 10-999) lay within 0.1 to 1 µM.

On to `C=CC(=O)N[C@H]1CCc2ccc(-c3nc(-c4ccc5c(c4)CCNC5)c4ccsc4c3-c3ccc(F)cc3OCCOC)cc21` [Compound 81], for which the “% of modification” value in assay [1] (setting [3]) is given as “D (percent of modification <25%)”. Take `CC1c2cc(-c3nc(-c4ccc5c(cnn5C)c4)c4ccsc4c3-c3c(F)cc(F)cc3OCCO)nn2CCN1C(=O)C(O)CO` (stereo not drawn) [Compound 1235]: in assay [2] (Compounds 1000-1279), the IC50 was above 1 µM. In the case of `COCCOc1cc(F)cc(F)c1-c1c(-c2cc3n(n2)CCN(C(=O)C(O)CO)C3C)nc(-c2ccc3c(cnn3C)c2)c2ccsc12` (stereo not drawn) [Compound 1241], the IC50 in assay [2] (Compounds 1000-1279) is above 1 µM. With `C=CC(=O)N1CCCC1Cn1cc(-c2nc(-c3ccc4c(c3)CCNC4)c3ccsc3c2-c2ccc(F)cc2OCCOC)cn1` (stereo not drawn) [Compound 63], in assay [1] (setting [3]), the “% of modification” value is listed as “A (percent of modification of PIK3CA protein ≥75%)”.

The record behind these values is US20250230138A1, “COMPOUNDS HAVING A T-STRUCTURE FORMED BY AT LEAST FOUR CYCLES FOR USE IN THE TREATMENT OF CANCER AND OTHER INDICATIONS” (TheRas, Inc., priority 2022, published 2025).
